Calls of active or inactive are those of the source.
How the values were obtained:
Assay type in all cases: functional
[1] = target: Ribosomal protein S6 kinase alpha-3 (Homo sapiens, UniProt P51812);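 also: measured within a kinome-wide profiling panel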
[2] = target: Tyrosine-protein kinase JAK2 (Homo sapiens, UniProt O60674);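 also: JAK2 tested as one member of a kinase panel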
[3] = target: 5'-AMP-activated protein kinase catalytic subunit alpha-1 (Homo sapiens, UniProt Q13131)
[4] = target: Serine/threonine-protein kinase PLK4 (Homo sapiens, UniProt O00444);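 also: PLK4 measured as one member of a kinome-wide kinase profiling panel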
[5] = target: Death-associated protein kinase 3 (Homo sapiens, UniProt O43293);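 also: measured as one member of a kinome-wide profiling panel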
[6] = target: Mitogen-activated protein kinase 8 (Homo sapiens, UniProt P45983);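 also: value comes from one member of a kinome-wide kinase profiling panel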
[7] = target: Serine/threonine-protein kinase pim-1 (Homo sapiens, UniProt P11309)
[8] = target: Aurora kinase A (Homo sapiens, UniProt O14965);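 also: value from the Navigating the Kinome kinase panel profiling, panel entry STK6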
[9] = target: Mast/stem cell growth factor receptor Kit (Homo sapiens, UniProt P10721);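 also: KIT entry within a kinase panel assay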
[10] = target: Serine/threonine-protein kinase PAK 4 (Homo sapiens, UniProt O96013);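 also: value obtained within a kinome profiling panel in which PAK4 was one of the panel members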
[11] = target: Fibroblast growth factor receptor 1 (Homo sapiens, UniProt P11362)
[12] = target: Tyrosine-protein kinase JAK3 (Homo sapiens, UniProt P52333)
[13] = target: Mitogen-activated protein kinase 9 (Homo sapiens, UniProt P45984);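 also: value from a kinome panel profiling assay, MAPK9 panel entry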
[14] = target: High affinity nerve growth factor receptor (Homo sapiens, UniProt P04629);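 also: NTRK1 tested as one member of a kinome-wide profiling panel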
[15] = target: Protein kinase C gamma type (Homo sapiens, UniProt P05129)
[16] = target: Glycogen synthase kinase-3 alpha (Homo sapiens, UniProt P49840);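 also: GSK3A result taken from a broad kinome-wide kinase panel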
[17] = target: T1, Receptor-type tyrosine-protein kinase FLT3 (Homo sapiens, UniProt P36888);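 also: FLT3 was tested as one member of a kinome-wide kinase panel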
T1 sequence (P36888 whole entry): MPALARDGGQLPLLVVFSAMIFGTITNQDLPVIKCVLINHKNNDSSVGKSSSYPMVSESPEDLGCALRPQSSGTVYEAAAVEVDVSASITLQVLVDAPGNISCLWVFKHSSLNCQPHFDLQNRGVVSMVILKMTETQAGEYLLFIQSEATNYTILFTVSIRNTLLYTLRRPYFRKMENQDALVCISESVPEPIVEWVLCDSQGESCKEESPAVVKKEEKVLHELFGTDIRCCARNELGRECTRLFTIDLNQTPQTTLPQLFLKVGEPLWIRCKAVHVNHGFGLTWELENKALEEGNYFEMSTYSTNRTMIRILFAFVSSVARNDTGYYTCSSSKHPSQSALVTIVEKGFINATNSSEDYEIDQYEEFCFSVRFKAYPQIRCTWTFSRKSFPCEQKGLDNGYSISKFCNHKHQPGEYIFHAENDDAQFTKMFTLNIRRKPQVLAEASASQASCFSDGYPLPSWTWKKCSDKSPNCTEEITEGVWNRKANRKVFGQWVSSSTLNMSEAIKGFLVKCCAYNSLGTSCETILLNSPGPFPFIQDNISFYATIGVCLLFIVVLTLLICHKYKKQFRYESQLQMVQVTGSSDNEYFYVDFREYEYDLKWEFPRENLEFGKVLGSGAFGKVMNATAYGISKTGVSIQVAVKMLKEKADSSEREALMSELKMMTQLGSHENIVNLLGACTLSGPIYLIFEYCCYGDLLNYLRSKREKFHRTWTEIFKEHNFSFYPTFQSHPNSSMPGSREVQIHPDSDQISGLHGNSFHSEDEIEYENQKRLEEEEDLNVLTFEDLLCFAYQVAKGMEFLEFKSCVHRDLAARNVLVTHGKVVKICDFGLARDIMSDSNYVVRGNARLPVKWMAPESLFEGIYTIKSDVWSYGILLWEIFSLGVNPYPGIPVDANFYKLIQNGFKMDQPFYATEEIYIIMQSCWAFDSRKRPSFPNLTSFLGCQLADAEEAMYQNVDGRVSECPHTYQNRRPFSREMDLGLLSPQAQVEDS

[18] = target: Tyrosine-protein kinase ABL1 (Homo sapiens, UniProt P00519)
[19] = target: Vascular endothelial growth factor receptor 2 (Homo sapiens, UniProt P35968)
[20] = target: Insulin-like growth factor 1 receptor (Homo sapiens, UniProt P08069); assay: Navigating the Kinome. Panel member name: IGF1R
[21] = target: Aurora kinase B (Homo sapiens, UniProt Q96GD4)
[22] = target: Rho-associated protein kinase 1 (Homo sapiens, UniProt Q13464);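 also: measured within a broad kinome-wide panel profiling many kinases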
[23] = target: Tyrosine-protein kinase Fyn (Homo sapiens, UniProt P06241)
[24] = target: Serine/threonine-protein kinase pim-2 (Homo sapiens, UniProt Q9P1W9);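 also: value comes from a broad kinase panel profiling study in which PIM2 was one of the panel members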
[25] = target: Vascular endothelial growth factor receptor 1 (Homo sapiens, UniProt P17948);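 also: measured within a kinome-wide profiling panel, FLT1 as the panel member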
[26] = target: Glycogen synthase kinase-3 beta (Homo sapiens, UniProt P49841);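 also: value comes from a broad kinome profiling panel, with GSK3B as the panel member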
[27] = target: BDNF/NT-3 growth factors receptor (Homo sapiens, UniProt Q16620);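 also: NTRK2 measured as one member of a broad kinome-wide kinase profiling panel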
[28] = target: cAMP-dependent protein kinase catalytic subunit alpha (Homo sapiens, UniProt P17612)
[29] = target: Mitogen-activated protein kinase 12 (Homo sapiens, UniProt P53778);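 also: measured as one member of a kinome-wide kinase profiling panel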
[30] = target: Macrophage colony-stimulating factor 1 receptor (Homo sapiens, UniProt P07333);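 also: value comes from the Navigating the Kinome screening panel, CSF1R member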
[31] = target: Dual specificity tyrosine-phosphorylation-regulated kinase 1A (Homo sapiens, UniProt Q13627);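 also: measured against DYRK1A as one member of a broad kinome profiling panel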
[32] = target: Serine/threonine-protein kinase 3 (Homo sapiens, UniProt Q13188);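 also: measured as one member of a kinome-wide kinase panel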
[33] = target: ALK tyrosine kinase receptor (Homo sapiens, UniProt Q9UM73);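 also: ALK tested as one member of a kinase panel screen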

Chain of Ribosomal protein S6 kinase alpha-3 (P51812 whole entry): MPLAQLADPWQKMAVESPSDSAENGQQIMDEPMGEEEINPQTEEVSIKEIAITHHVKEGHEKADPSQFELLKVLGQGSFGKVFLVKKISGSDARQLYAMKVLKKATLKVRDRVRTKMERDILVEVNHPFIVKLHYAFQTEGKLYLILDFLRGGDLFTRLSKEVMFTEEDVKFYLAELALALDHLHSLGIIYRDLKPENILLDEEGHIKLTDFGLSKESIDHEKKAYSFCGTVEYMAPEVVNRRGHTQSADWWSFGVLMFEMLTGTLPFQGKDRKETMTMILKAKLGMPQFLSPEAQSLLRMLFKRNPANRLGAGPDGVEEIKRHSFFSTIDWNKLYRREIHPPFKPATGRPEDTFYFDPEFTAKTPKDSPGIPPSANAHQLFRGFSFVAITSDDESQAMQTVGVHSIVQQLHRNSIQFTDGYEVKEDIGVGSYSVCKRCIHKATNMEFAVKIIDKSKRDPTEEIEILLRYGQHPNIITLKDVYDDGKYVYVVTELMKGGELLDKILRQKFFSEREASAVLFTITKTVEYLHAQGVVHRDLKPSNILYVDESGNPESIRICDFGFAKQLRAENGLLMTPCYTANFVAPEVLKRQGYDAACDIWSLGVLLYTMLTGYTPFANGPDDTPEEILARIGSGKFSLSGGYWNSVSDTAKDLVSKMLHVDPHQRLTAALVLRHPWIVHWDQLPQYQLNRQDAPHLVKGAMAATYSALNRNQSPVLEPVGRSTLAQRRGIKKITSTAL
Chain of Tyrosine-protein kinase Fyn (P06241 whole entry): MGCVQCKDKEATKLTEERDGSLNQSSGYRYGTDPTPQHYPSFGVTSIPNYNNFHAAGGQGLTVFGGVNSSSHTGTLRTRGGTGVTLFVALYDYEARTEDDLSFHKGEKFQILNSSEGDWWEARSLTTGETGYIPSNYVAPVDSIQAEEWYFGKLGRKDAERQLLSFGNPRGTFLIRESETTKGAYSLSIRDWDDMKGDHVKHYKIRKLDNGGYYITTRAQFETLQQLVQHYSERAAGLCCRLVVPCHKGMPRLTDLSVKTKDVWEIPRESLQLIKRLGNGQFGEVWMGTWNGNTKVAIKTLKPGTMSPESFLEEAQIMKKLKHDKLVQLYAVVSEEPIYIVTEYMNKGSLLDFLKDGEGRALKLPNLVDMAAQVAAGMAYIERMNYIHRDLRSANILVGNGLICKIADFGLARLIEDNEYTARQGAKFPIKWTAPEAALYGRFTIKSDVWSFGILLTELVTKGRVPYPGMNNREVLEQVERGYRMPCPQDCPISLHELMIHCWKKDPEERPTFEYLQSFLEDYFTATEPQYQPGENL
Chain of Glycogen synthase kinase-3 alpha (P49840 whole entry): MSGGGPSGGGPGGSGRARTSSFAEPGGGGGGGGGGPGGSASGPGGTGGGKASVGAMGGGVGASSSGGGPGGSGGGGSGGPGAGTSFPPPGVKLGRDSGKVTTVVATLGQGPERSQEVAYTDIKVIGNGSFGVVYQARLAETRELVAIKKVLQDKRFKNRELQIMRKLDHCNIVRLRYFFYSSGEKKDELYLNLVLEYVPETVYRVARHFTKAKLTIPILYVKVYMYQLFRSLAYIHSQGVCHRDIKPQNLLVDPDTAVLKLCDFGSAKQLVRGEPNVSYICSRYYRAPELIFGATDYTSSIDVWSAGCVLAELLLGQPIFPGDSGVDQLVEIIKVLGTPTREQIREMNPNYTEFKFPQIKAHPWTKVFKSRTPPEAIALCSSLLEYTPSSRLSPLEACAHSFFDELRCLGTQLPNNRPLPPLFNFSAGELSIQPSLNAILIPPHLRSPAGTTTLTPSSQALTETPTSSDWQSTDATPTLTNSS
Chain of Glycogen synthase kinase-3 beta (P49841 whole entry): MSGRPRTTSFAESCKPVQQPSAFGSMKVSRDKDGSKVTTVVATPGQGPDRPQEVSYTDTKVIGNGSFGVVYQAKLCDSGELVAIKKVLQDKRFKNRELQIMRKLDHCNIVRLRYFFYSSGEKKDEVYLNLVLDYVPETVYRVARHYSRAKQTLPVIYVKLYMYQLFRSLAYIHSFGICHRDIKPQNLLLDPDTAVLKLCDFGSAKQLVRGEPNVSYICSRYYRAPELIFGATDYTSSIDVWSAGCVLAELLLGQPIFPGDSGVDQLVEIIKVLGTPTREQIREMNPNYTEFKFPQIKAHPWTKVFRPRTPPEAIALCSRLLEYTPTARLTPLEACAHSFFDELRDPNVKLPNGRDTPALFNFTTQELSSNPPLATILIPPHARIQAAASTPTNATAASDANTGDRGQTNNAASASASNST
Chain of Mitogen-activated protein kinase 8 (P45983 whole entry): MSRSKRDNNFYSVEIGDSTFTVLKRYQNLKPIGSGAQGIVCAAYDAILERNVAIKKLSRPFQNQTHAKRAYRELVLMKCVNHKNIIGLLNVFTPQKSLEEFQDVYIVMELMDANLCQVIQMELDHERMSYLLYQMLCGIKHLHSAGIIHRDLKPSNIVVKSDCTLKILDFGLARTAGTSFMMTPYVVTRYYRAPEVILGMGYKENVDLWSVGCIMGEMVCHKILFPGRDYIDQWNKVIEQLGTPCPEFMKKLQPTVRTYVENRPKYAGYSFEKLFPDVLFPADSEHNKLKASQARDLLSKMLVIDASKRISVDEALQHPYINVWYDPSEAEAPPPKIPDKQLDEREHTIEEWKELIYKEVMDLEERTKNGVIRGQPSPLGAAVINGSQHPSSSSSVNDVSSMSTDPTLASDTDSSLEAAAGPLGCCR
Chain of Vascular endothelial growth factor receptor 1 (P17948 whole entry): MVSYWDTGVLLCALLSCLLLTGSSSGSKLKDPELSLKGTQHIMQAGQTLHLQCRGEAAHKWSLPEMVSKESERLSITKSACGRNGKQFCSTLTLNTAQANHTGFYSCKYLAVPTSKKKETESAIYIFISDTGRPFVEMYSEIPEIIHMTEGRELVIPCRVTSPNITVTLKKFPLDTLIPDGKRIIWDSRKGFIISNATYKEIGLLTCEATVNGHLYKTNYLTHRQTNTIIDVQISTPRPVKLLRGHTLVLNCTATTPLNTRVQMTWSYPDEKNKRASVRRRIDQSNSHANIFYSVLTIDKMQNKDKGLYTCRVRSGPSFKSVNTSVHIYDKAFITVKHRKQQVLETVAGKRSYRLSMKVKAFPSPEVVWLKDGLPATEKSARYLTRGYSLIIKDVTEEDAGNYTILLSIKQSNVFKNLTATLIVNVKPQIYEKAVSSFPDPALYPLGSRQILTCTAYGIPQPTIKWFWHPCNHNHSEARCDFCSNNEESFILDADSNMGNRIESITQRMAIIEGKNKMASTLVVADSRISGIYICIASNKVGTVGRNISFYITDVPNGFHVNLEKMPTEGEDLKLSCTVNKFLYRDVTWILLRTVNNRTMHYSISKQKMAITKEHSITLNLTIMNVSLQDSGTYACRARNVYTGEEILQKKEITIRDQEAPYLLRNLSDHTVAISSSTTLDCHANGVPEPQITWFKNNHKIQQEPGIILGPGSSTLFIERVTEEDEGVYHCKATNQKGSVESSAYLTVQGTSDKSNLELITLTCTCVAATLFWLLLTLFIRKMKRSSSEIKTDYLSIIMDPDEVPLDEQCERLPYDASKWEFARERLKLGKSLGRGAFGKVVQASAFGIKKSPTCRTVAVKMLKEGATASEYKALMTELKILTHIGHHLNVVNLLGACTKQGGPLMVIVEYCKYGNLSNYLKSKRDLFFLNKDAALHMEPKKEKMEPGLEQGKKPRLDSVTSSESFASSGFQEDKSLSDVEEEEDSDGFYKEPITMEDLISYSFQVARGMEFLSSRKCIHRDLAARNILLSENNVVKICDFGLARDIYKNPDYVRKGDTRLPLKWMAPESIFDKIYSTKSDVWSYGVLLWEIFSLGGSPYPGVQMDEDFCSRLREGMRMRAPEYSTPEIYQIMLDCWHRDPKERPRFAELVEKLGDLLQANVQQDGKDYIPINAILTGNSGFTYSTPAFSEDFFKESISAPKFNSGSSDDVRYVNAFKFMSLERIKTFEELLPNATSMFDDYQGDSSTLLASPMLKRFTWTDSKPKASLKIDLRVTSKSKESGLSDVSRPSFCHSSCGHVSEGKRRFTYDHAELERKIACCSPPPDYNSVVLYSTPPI
Chain of Fibroblast growth factor receptor 1 (P11362 whole entry): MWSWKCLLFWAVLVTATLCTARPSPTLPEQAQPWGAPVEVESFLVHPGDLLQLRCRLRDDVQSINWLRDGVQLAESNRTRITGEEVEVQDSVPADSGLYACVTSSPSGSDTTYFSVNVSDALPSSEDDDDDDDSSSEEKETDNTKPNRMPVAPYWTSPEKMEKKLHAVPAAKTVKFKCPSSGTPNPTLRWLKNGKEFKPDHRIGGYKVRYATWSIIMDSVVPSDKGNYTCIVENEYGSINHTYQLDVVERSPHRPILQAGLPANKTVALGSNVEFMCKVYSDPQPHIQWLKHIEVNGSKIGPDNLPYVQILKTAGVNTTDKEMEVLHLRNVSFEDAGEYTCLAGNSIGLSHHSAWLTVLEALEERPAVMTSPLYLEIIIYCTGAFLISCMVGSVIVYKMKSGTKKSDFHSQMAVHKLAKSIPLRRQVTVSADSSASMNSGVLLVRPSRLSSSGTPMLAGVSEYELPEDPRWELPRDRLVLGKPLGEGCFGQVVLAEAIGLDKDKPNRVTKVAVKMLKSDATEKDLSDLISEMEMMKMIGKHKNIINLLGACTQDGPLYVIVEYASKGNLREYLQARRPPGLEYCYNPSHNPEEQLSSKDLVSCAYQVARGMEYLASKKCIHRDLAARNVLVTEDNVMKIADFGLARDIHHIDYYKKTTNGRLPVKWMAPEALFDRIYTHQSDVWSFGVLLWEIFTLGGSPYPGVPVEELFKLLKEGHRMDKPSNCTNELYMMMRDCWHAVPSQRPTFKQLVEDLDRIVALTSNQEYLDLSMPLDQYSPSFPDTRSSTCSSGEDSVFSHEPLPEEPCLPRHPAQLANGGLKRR

SMILES	Ki [1]	Ki [2]	Ki [3]	Ki [5]	Ki [6]	Ki [7]	Ki [8]	Ki [9]	Ki [10]	Ki [11]	Ki [12]	Ki [13]	Ki [14]	Ki [16]	Ki [17]	Ki [18]	Ki [19]	Ki [20]	Ki [21]	Ki [22]	other results
NC(COc1cncc(-c2cc3ccncc3s2)c1)Cc1c[nH]c2ccccc12 (stereo unspecified)	25.1 nM (active)	1000 nM (active)	316 nM (active)	63.1 nM (active)	2510 nM (active)	79.4 nM (active)	> 6310 nM (inactive)	631 nM (active)	5010 nM (active)	2510 nM (active)	> 1580 nM (inactive)	> 3980 nM (inactive)	> 2510 nM (inactive)	25.1 nM (active)	251 nM (active)	> 631 nM (inactive)	794 nM (active)	> 1000 nM (inactive)	794 nM (active)	20 nM (active)	Ki [4]: 631 nM (active); Ki [15]: 398 nM (active); Ki [23]: > 794 nM (inactive); Ki [24]: > 1580 nM (inactive); Ki [25]: 316 nM (active); Ki [26]: 12.6 nM (active); Ki [27]: > 5010 nM (inactive); Ki [28]: 10 nM (active); Ki [29]: 2000 nM (active); Ki [30]: > 2510 nM (inactive); Ki [31]: 3.98 nM (active); Ki [32]: 794 nM (active)
CN(C)C1CCC(Nc2nc(Cl)cc(-c3c[nH]c4ncccc34)n2)CC1 (stereo unspecified)	63.1 nM (active)	1260 nM (active)	79.4 nM (active)	63.1 nM (active)	1000 nM (active)	251 nM (active)	> 1580 nM (inactive)	> 3980 nM (inactive)	50.1 nM (active)	> 3980 nM (inactive)	1580 nM (active)	> 3980 nM (inactive)	> 3160 nM (inactive)	794 nM (active)	1580 nM (active)	> 3980 nM (inactive)	1260 nM (active)	> 2510 nM (inactive)	794 nM (active)	1.26 nM (active)	Ki [33]: 1580 nM (active); Ki [23]: > 6310 nM (inactive); Ki [25]: > 3980 nM (inactive); Ki [26]: 1580 nM (active); Ki [27]: 1580 nM (active); Ki [28]: 25.1 nM (active); Ki [30]: 501 nM (active); Ki [31]: 39.8 nM (active); Ki [32]: 79.4 nM (active)

Reference: ChEMBL document CHEMBL1201862, “PubChem BioAssay data set” (2004)
